According to patent US10479780B2, “Aminopyrazole derivatives” (Chugai Seiyaku Kabushiki Kaisha, priority 2015, dated 2019):
pIC50: −log10 of the molar value. Like-named read-outs stand apart in the source and are kept apart here.

Assays:
Assay type in all cases: biochemical
human Yes1 enzyme = molecular target: T1, human Yes1 enzyme (Homo sapiens, UniProt P07947); test: Yes1 enzyme inhibitory activity (time-resolved fluorometry, biotinylated peptide phosphorylation); conditions: read-out: YES_IC50
T1 construct: made in house
Procedure, shortened: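 Inhibition was expressed against a compound-free control to give IC50, using TR-FRET read-out (Eu-cryptate anti-pTyr antibody, streptavidin-XL665).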

human Lck enzyme = molecular target: T2, human Lck enzyme (Homo sapiens, UniProt P06239); test: Lck enzyme inhibitory activity (time-resolved fluorometry, biotinylated peptide phosphorylation); conditions: read-out: LCK_IC50
T2 construct: purchased Carna Biosciences, Inc. 08-170
Procedure, shortened: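 Readout pairs a europium cryptate-labelled anti-phosphotyrosine antibody with XL665-streptavidin, measured by time-resolved fluorescence. IC50 derived from percent inhibition against untreated controls.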

human Src enzyme = molecular target: T3, human Src enzyme (Homo sapiens, UniProt P12931); test: Src enzyme inhibitory activity (time-resolved fluorometry, biotinylated peptide phosphorylation); conditions: read-out: SRC_IC50
T3 construct: purchased Carna Biosciences, Inc. 08-173
Procedure, shortened: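 Compounds were tested for blocking tyrosine phosphorylation of a biotinylated peptide substrate by recombinant human Src. Phosphorylated product was quantified by time-resolved fluorometry using europium cryptate and XL665 conjugates, and IC50 was calculated against the compound-free control.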

[1] = biotinylated peptide phosphorylation

T1 sequence (P07947 whole entry): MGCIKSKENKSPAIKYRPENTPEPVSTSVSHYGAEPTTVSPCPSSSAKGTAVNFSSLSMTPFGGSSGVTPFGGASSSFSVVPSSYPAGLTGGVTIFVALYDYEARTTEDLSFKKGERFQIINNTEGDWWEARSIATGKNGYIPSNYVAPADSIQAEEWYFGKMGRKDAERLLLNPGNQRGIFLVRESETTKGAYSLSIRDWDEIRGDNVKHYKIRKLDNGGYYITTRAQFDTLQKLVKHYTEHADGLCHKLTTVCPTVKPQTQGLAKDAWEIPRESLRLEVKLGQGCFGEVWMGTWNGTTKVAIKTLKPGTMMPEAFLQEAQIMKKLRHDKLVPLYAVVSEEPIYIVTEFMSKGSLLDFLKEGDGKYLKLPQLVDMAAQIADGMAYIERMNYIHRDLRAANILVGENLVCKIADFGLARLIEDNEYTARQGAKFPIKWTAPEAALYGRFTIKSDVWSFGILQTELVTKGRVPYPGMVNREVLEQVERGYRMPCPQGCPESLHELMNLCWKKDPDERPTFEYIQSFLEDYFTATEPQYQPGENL
T3 sequence (P12931 whole entry): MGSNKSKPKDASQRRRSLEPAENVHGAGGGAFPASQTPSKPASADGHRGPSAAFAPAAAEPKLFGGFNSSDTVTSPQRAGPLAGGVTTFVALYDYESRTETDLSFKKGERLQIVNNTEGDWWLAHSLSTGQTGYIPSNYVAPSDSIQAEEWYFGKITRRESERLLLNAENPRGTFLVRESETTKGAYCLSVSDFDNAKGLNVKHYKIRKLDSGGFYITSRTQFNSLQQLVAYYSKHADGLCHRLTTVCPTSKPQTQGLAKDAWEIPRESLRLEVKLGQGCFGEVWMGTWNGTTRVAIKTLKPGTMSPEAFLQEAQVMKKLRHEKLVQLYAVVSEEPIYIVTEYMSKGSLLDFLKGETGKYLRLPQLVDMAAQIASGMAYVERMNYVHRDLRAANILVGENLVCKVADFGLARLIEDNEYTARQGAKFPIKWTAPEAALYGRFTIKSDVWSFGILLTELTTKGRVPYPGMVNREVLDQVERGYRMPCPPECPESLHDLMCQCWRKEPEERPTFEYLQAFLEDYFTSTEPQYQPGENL
T2 sequence (P06239 whole entry): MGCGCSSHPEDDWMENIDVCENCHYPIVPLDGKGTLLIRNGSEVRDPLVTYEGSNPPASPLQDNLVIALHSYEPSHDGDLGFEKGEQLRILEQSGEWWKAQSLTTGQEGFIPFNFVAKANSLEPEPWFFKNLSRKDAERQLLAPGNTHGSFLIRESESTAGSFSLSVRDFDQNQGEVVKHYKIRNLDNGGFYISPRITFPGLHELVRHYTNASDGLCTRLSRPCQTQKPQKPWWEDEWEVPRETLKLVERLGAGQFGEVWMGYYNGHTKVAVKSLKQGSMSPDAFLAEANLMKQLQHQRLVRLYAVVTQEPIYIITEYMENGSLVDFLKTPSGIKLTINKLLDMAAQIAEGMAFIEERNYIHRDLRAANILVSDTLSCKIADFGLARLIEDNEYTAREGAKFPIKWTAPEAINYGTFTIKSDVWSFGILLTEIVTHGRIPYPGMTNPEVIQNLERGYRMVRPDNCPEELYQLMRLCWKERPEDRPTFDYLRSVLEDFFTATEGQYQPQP

For `Cc1cc(Oc2ccccc2F)ccc1-n1ncc(C(=O)c2cc3cc(F)c(NS(=O)(=O)c4cncc(Cl)c4)cc3[nH]2)c1N` [Example 5-1-542, N-[2-[5-amino-1-[4-(2-fluorophenoxy)-2-methylphenyl]pyrazole-4-carbonyl]-5-fluoro-1H-indol-6-yl]-5-chloropyridine-3-sulfonamide], the pIC50 (human Yes1 enzyme; [1]) was 8.44, the pIC50 (human Lck enzyme; [1]) was 6.74 and the pIC50 (human Src enzyme; [1]) was 6.37.
In the case of `Cc1cc(Oc2ccccc2F)ncc1-n1ncc(C(=O)c2cc3cc(F)c(NS(=O)(=O)c4cccc(C#N)c4)cc3[nH]2)c1N` [Example 5-1-556, N-[2-[5-amino-1-[6-(2-fluorophenoxy)-4-methylpyridin-3-yl]pyrazole-4-carbonyl]-5-fluoro-1H-indol-6-yl]-3-cyanobenzenesulfonamide], the pIC50 (human Yes1 enzyme; [1]) was 8.06, the pIC50 (human Lck enzyme; [1]) was 6.82 and the pIC50 (human Src enzyme; [1]) was 6.00.
`Cc1cc2cc(C(=O)c3cnn(-c4c(C)cc(Oc5c(F)cccc5Cl)cc4F)c3N)[nH]c2cc1NS(C)(=O)=O` [Example 5-1-142, N-[2-[5-amino-1-[4-(2-chloro-6-fluorophenoxy)-2-fluoro-6-methylphenyl]pyrazole-4-carbonyl]-5-methyl-1H-indol-6-yl] methanesulfonamide] gave a pIC50 (human Yes1 enzyme) of 8.25, a pIC50 (human Lck enzyme) of 7.28 and a pIC50 (human Src enzyme) of 7.00.
Work on `Cc1cc2cc(C(=O)c3cnn(-c4ccc(Oc5ccccc5F)cc4C)c3N)[nH]c2cc1N1CCC(N2CCOCC2)CC1` [Example 5-1-077, [5-amino-1-[4-(2-fluorophenoxy)-2-methylphenyl]pyrazol-4-yl]-[5-methyl-6-(4-morpholin-4-ylpiperidin-1-yl)-1H-indol-2-yl] methanone] yielded a pIC50 (human Yes1 enzyme) of 9.00, a pIC50 (human Lck enzyme) of 8.15 and a pIC50 (human Src enzyme) of 7.38.
`Cc1cc2cc(C(=O)c3cnn(-c4cnc(Oc5ccccc5F)cc4C)c3N)[nH]c2cc1N1CCOCC1` [Example 4-2-123, [5-amino-1-[6-(2-fluorophenoxy)-4-methylpyridin-3-yl]pyrazol-4-yl]-(5-methyl-6-morpholin-4-yl-1H-indol-2-yl)methanone] showed a pIC50 (human Yes1 enzyme; [1]) of 8.72, a pIC50 (human Lck enzyme; [1]) of 8.24 and a pIC50 (human Src enzyme; [1]) of 7.43.
`Cc1cc(Oc2c(F)cccc2F)ncc1-n1ncc(C(=O)c2cc3cc(F)c(N4CCCS4(=O)=O)cc3[nH]2)c1N` [Example 4-9-002, [5-amino-1-[6-(2,6-difluorophenoxy)-4-methylpyridin-3-yl]pyrazol-4-yl]-[6-(1,1-dioxo-1,2-thiazolidin-2-yl)-5-fluoro-1H-indol-2-yl]methanone] showed a pIC50 (human Yes1 enzyme; [1]) of 9.14, a pIC50 (human Lck enzyme; [1]) of 9.02 and a pIC50 (human Src enzyme; [1]) of 8.01.
`Cc1cc(-n2ncc(C(=O)c3cc4cc(OCC(F)F)c(N5C(=O)NC(C)(C)C5=O)cc4[nH]3)c2N)ccc1Oc1ccccc1F` [Example 5-1-170, 3-[2-[5-amino-1-[4-(2-fluorophenoxy)-3-methylphenyl]pyrazole-4-carbonyl]-5-(2,2-difluoroethoxy)-1H-indol-6-yl]-5,5-dimethylimidazolidine-2,4-dione] gave a pIC50 (human Yes1 enzyme) of 8.89, a pIC50 (human Lck enzyme) of 7.05 and a pIC50 (human Src enzyme) of 6.31.
Compound `Cc1cc(Oc2ccccc2F)ccc1-n1ncc(C(=O)c2cc3cc(F)c(NS(=O)(=O)C4CCOCC4)cc3[nH]2)c1N` [Example 5-1-389, N-[2-[5-amino-1-[4-(2-fluorophenoxy)-2-methylphenyl]pyrazole-4-carbonyl]-5-fluoro-1H-indol-6-yl]oxane-4-sulfonamide] has a pIC50 (human Yes1 enzyme) of 8.85, a pIC50 (human Lck enzyme) of 7.74 and a pIC50 (human Src enzyme) of 7.62.
`Cc1cc(Oc2ccccc2F)ccc1-n1ncc(C(=O)c2cc3cc(OCC(F)F)c(NS(=O)(=O)c4cccc(Cl)c4)cc3[nH]2)c1N` [Example 5-1-417, N-[2-[5-amino-1-[4-(2-fluorophenoxy)-2-methylphenyl]pyrazole-4-carbonyl]-5-(2,2-difluoroethoxy)-1H-indol-6-yl]-3-chlorobenzenesulfonamide] was tested, and the pIC50 (human Yes1 enzyme; [1]) was 8.24, the pIC50 (human Lck enzyme; [1]) was 6.89 and the pIC50 (human Src enzyme; [1]) was 6.62.
`Cc1cc(Oc2c(F)cccc2F)ncc1-n1ncc(C(=O)c2cc3cc(OCC(F)F)c(NS(=O)(=O)c4cncc(F)c4)cc3[nH]2)c1N` [Example 5-1-576, N-[2-[5-amino-1-[6-(2,6-difluorophenoxy)-4-methylpyridin-3-yl]pyrazole-4-carbonyl]-5-(2,2-difluoroethoxy)-1H-indol-6-yl]-5-fluoropyridine-3-sulfonamide] was tested, and the pIC50 (human Yes1 enzyme; [1]) was 8.51, the pIC50 (human Lck enzyme; [1]) was 7.85 and the pIC50 (human Src enzyme; [1]) was 6.33.
Work on `CC(C)N1CCC(c2cc3[nH]c(C(=O)c4cnn(-c5ccc(Oc6ccccc6Cl)cc5)c4N)cc3cc2F)CC1` [Example 5-1-015, [5-amino-1-[4-(2-chlorophenoxy)phenyl]pyrazol-4-yl]-[5-fluoro-6-(1-propan-2-ylpiperidin-4-yl)-1H-indol-2-yl]methanone] yielded a pIC50 (human Yes1 enzyme) of 8.82, a pIC50 (human Lck enzyme) of 8.66 and a pIC50 (human Src enzyme) of 7.64.
In the case of `Cc1cc(-n2ncc(C(=O)c3cc4cc(OC(F)F)c(N5CCOCC5)cc4[nH]3)c2N)ccc1Oc1ccccc1F` [Example 5-1-173, [5-amino-1-[4-(2-fluorophenoxy)-3-methylphenyl]pyrazol-4-yl]-[5-(difluoromethoxy)-6-morpholin-4-yl-1H-indol-2-yl]methanone], the pIC50 (human Yes1 enzyme) was 8.59, the pIC50 (human Lck enzyme) was 7.00 and the pIC50 (human Src enzyme) was 6.47.
For `Cc1cc(Oc2ccccc2F)ccc1-n1ncc(C(=O)c2cc3cc(OCC(F)F)c(N4C(=O)[C@@H]5CCCN5C4=O)cc3[nH]2)c1N` [Example 5-1-252, (7aS)-2-[2-[5-amino-1-[4-(2-fluorophenoxy)-2-methylphenyl]pyrazole-4-carbonyl]-5-(2,2-difluoroethoxy)-1H-indol-6-yl]-5,6,7,7a-tetrahydropyrrolo[1,2-c]imidazole-1,3-dione], the pIC50 (human Yes1 enzyme) was 8.92, the pIC50 (human Lck enzyme) was 8.34 and the pIC50 (human Src enzyme) was 7.85.
`Cc1cc(Oc2c(F)cccc2F)ncc1-n1ncc(C(=O)c2cc3cc(OCC(F)F)c(NC4COC4)cc3[nH]2)c1N` [Example 4-23-008, {5-amino-1-[6-(2,6-difluorophenoxy)-4-methylpyridin-3-yl]pyrazol-4-yl}-[5-(2,2-difluoroethoxy)-6-(oxetan-3-ylamino)-1H-indol-2-yl]methanone] gave a pIC50 (human Yes1 enzyme; [1]) of 8.48, a pIC50 (human Lck enzyme; [1]) of 8.34 and a pIC50 (human Src enzyme; [1]) of 7.64.
Compound `Cc1cc(-n2ncc(C(=O)c3cc4cc(OC5CCN(C(C)C)CC5)c(N5C(=O)N[C@@H](C)C5=O)cc4[nH]3)c2N)ccc1Oc1ccccc1F` [Example 5-1-287, (5S)-3-[2-[5-amino-1-[4-(2-fluorophenoxy)-3-methylphenyl]pyrazole-4-carbonyl]-5-(1-propan-2-ylpiperidin-4-yl)oxy-1H-indol-6-yl]-5-methylimidazolidine-2.4-dione] has a pIC50 (human Yes1 enzyme) of 9.00, a pIC50 (human Lck enzyme) of 7.77 and a pIC50 (human Src enzyme) of 6.46.
For `Cc1cc(Oc2ccccc2F)ncc1-n1ncc(C(=O)c2cc3cc(F)c(N4CC5(CCOCC5)NS4(=O)=O)cc3[nH]2)c1N` [Example 5-1-413, [5-amino-1-[6-(2-fluorophenoxy)-4-methylpyridin-3-yl]pyrazol-4-yl]-[6-(2,2-dioxo-8-oxa-2λ6-thia-1,3-diazaspiro[4.5]decan-3-yl)-5-fluoro-1H-indol-2-yl]methanone], the pIC50 (human Yes1 enzyme; [1]) was 8.82, the pIC50 (human Lck enzyme; [1]) was 7.77 and the pIC50 (human Src enzyme; [1]) was 7.05.
`Cc1cc(Oc2ccccc2F)ccc1-n1ncc(C(=O)c2cc3cc(F)c(NS(=O)(=O)c4cccc(C#N)n4)cc3[nH]2)c1N` [Example 5-1-537, N-[2-[5-amino-1-[4-(2-fluorophenoxy)-2-methylphenyl]pyrazole-4-carbonyl]-5-fluoro-1H-indol-6-yl]-6-cyanopyridine-2-sulfonamide] was tested, and the pIC50 (human Yes1 enzyme; [1]) was 8.52, the pIC50 (human Lck enzyme; [1]) was 7.24 and the pIC50 (human Src enzyme; [1]) was 6.49.
For `Cc1cc2cc(C(=O)c3cnn(-c4ccc(Oc5ccccc5F)cc4C)c3N)[nH]c2cc1NS(C)(=O)=O` [Example 4-2-053, N-[2-[5-amino-1-[4-(2-fluorophenoxy)-2-methylphenyl]pyrazole-4-carbonyl]-5-methyl-1H-indol-6-yl]methanesulfonamide], the pIC50 (human Yes1 enzyme; [1]) was 9.47, the pIC50 (human Lck enzyme; [1]) was 8.29 and the pIC50 (human Src enzyme; [1]) was 7.72.
`Cc1cc(Oc2ccccc2F)ccc1-n1ncc(C(=O)c2cc3cc(F)c(NS(=O)(=O)C4CC4)cc3[nH]2)c1N` [Example 4-2-040, N-[2-[5-amino-1-[4-(2-fluorophenoxy)-2-methylphenyl]pyrazole-4-carbonyl]-5-fluoro-1H-indol-6-yl]cyclopropanesulfonamide] was tested, and the pIC50 (human Yes1 enzyme; [1]) was 8.66, the pIC50 (human Lck enzyme; [1]) was 7.62 and the pIC50 (human Src enzyme; [1]) was 7.38.
`Cc1cc2cc(C(=O)c3cnn(-c4ccc(Oc5ccccc5F)cc4C)c3N)[nH]c2cc1NS(=O)(=O)c1cncc(Cl)c1` [Example 5-1-540, N-[2-[5-amino-1-[4-(2-fluorophenoxy)-2-methylphenyl]pyrazole-4-carbonyl]-5-methyl-1H-indol-6-yl]-5-chloropyridine-3-sulfonamide] showed a pIC50 (human Yes1 enzyme; [1]) of 8.46, a pIC50 (human Lck enzyme; [1]) of 7.02 and a pIC50 (human Src enzyme; [1]) of 6.46.
`Cc1cc2cc(C(=O)c3cnn(-c4c(C)cc(Oc5ccccc5F)cc4F)c3N)[nH]c2cc1NS(=O)(=O)CCCF` [Example 4-2-070, N-[2-[5-amino-1-[2-fluoro-4-(2-fluorophenoxy)-6-methylphenyl]pyrazole-4-carbonyl]-5-methyl-1H-indol-6-yl]-3-fluoropropane-1-sulfonamide] gave a pIC50 (human Yes1 enzyme; [1]) of 8.12, a pIC50 (human Lck enzyme; [1]) of 7.33 and a pIC50 (human Src enzyme; [1]) of 6.85.
Work on `Cc1cc(Oc2c(F)cccc2F)ncc1-n1ncc(C(=O)c2cc3cc(F)c(N4C(=O)NC5(CCC5)C4=O)cc3[nH]2)c1N` [Example 5-1-312, 7-[2-[5-amino-1-[6-(2,6-difluorophenoxy)-4-methylpyridin-3-yl]pyrazole-4-carbonyl]-5-fluoro-1H-indol-6-yl]-5,7-diazaspiro[3.4]octane-6,8-dione] yielded a pIC50 (human Yes1 enzyme) of 8.46, a pIC50 (human Lck enzyme) of 8.00 and a pIC50 (human Src enzyme) of 6.80.
